Test results taken from ChEMBL document CHEMBL1157539, “Thousands of chemical starting points for antimalarial lead identification” (Nature, 2010).
Where “and” joins values, the source holds several entries; their conditions need not be identical. Equal values may be shown once.

tested on: Plasmodium falciparum; assay: GSK_TCMDC: Inhibition of Plasmodium falciparum 3D7 in whole erythrocytes, using parasite LDH activity as an index of growth.; assay type: functional, organism-based; conditions: not given

Compound	XC50
O=C(NC1CCC(CN2CCC(c3c[nH]c4ccccc34)CC2)CC1)c1cc2ccccc2s1 (stereo not drawn)	725 nM
COc1ccc2ncc(F)c(C(O)CN3CCC(NCc4ccc5c(n4)NC(=O)CO5)CC3)c2c1 (stereo not drawn)	1110 nM and 367 nM

same assay, conditions: Plasmodium falciparum, 3D7

Compound	XC50 [nM]
COc1ccc(O)c(CN2CCN(c3cc(C)ccc3C)CC2)c1	1010
Cc1ccc2[nH]c3c(NCCCN4CCOCC4)ncnc3c2c1	942
Cc1cc(CNCCCCCCCNCc2cccc([N+](=O)[O-])c2)ccc1O	637
Fc1ccc2[nH]c(-c3ccc(-c4ccc(CNCCc5ccncc5)cc4)s3)nc2c1	142
CC(C)(C)c1cc(C(=O)N2CCN(c3nccnc3C#N)CC2)n(Cc2ccccc2)n1	758
O=S(=O)(c1ccc(OCc2ccc(Cl)cc2)cc1)c1cc2c(cc1O)CCN(C1CCC1)CC2	942
Cc1nc2ccc3ccc(CNc4ccc5c(c4)CN([C@@H](CCC(=O)O)C(=O)O)C5=O)cc3c2c(=O)[nH]1 [OSI-7904]	164
COc1ccc2c(=O)c(-c3ccc(OC(F)(F)F)cc3)c(C)[nH]c2c1	233
COc1cccc(C2CCN(CCN3CCC(NC(=O)c4ccc(-c5ccc(C(F)(F)F)cc5)cc4)CC3)CC2)c1	203
CCCCCCNc1c2ccccc2nc2ccccc12	949
Cc1cc(N)c2cc(NC(=O)/C=C/c3ccccc3)ccc2n1	757
Cc1ccc(NC(=O)c2ccc3ncccc3c2)cc1OC1CCN(Cc2ccsc2)C1 (stereo not drawn)	802
CCNc1cc(C(=O)N[C@@H](Cc2ccccc2)[C@H](O)CNCCC(C)c2ccccc2)cc(N2CCCC2=O)c1 (stereo partly drawn)	511
N#CC(c1ccc(Cl)cc1)c1ccc2c(C(F)(F)F)cc(C(F)(F)F)nc2n1 (stereo not drawn)	1010
N#Cc1c(Cl)cccc1Oc1ccc(S(=O)(=O)N2CCC(CN3CCC(c4c[nH]c5ccccc45)CC3)CC2)cc1	745
COc1ccc(CNCCc2cccs2)cc1-c1ccc(S(=O)(=O)NCCN2CCCC2)s1	877
CC[C@H](NC(=O)c1c(CCCN2CCN(c3ccccc3)CC2)c(-c2ccccc2)nc2cc(O)ccc12)c1ccccc1	780
COc1cccc(CNC(=O)NC2CCN(c3ccnc(Nc4ccc(F)cc4)n3)C2)c1 (stereo not drawn)	805
COc1ccc2nccc([C@@H](O)CN3CCC(NC/C=C/c4cccnc4)CC3)c2c1	622
Cc1[nH]c2ccc(O)cc2c1C1CCN(CC2CCC(NC(=O)/C=C/c3c(Cl)cccc3Cl)CC2)CC1 (stereo not drawn)	817
c1cc(CNC2CCN(CC3CCCCC3)CC2)cc(-n2ccnc2)c1	650
CN=c1nc(NN=Cc2ccccc2Cl)[nH]c(=Nc2cccc(C(F)(F)F)c2)[nH]1	915
O=C(NCCc1ccccc1)N(Cc1cccc(-c2ccc(CNC3CCCC3)cc2)c1)C1CCN(Cc2ccccc2)CC1	404
COc1ccc2nc(C)cc(N/N=C/c3ccc([N+](=O)[O-])o3)c2c1	698

Compound	XC50 [nM]
O=C(/C=C/c1ccc(C(F)(F)F)cc1)NCCCCCN1CCCN(C(=O)Nc2ccc(F)c(Cl)c2)CC1	368
COc1ccc2ncc(F)c(CCN3CC[C@@H](CNCc4cc(C)c5c(c4)OCCO5)C3)c2n1	890
COc1ccc2nccc([C@@H](O)CN3CCC(NC(=O)c4ccc(C5(C(F)(F)F)N=N5)cc4)CC3)c2c1	931
COc1cc2nc(-c3ccccc3)nc(N3CCN(C(=O)c4ccco4)CC3)c2cc1OC	1410
CC1CNC(c2ccc(NC(=O)Nc3ccc(C4=NC(C)CN4)cc3)cc2)=N1 (stereo not drawn)	379
Cc1cc(NCC(C)C)c2[nH]nc(-c3ccccc3)c2n1	744
COc1ccc2nccc(N3CCC(SCCNCc4ccc5c(n4)NC(=O)CO5)C3)c2n1 (stereo not drawn)	801
Cc1csc(NC2=NCCN2)n1	471
CC(C)(C)COc1ccc2c(N)n[nH]c2c1	789
Fc1ccc2[nH]c(-c3ccc(-c4cccc(CN5CCCCC5)c4)cc3)nc2c1	267
CN1CCN(c2ccc(-c3nc4ccc(OCc5cc(Cl)cc(Cl)c5)c(C(N)=O)c4[nH]3)cc2)CC1	657
N#Cc1cccc(NC(=O)Nc2cccc(-c3cccc(-c4nc5cc(C(F)(F)F)ccc5[nH]4)c3)c2)c1	224
Nc1nc(O)c2cc(CN(C=O)c3ccc(C(=O)N[C@@H](CCC(=O)O)C(=O)O)cc3)ccc2n1	179
CCNc1cc(C(=O)N[C@@H](Cc2ccccc2)[C@H](O)CNCCCc2ccc(OC)cc2)cc(N2CCCC2=O)c1	556
COc1ccc(C(=O)CCC(=O)N(Cc2ccc(-c3ccc(CNCCc4ccc(S(C)(=O)=O)cc4)cn3)cc2)Cc2ccc3c(c2)OCO3)cc1F	943
O=c1cc(NCCCNCc2csc(Br)c2Sc2ccc(Cl)cc2)[nH]c2ccccc12	849
O=C(NCCN1Cc2ccccc2C1=O)c1ccc(Oc2ccc(C(=O)NCCN3Cc4ccccc4C3=O)cc2)cc1	361
COc1ccc(-c2cc3ncnc(N4CCN(CCN5CCCC5)CC4)c3s2)cc1	831
C=CCCCNCC(NCCCNc1cc(=O)c2ccccc2[nH]1)c1cc(Br)cc(Br)c1 (stereo not drawn)	893
NC(=O)COc1cccc2c1CCN(CCN1CCC(NC(=O)c3ccc(-c4ccc(Cl)cc4)cc3)CC1)C2	841
CCC[C@@H]([C@@H](CC1CCC(C)CC1)C(=O)N[C@@H](CCCCNC(=O)c1ccccn1)C(=O)Nc1nccs1)N(O)C=O (stereo partly drawn)	51.3
N#Cc1cccc(NC(=O)Nc2ccc3c(c2)CCN(C2CCC2)CC3)c1	843
CC(C)NCc1cccc(-c2cccc(-c3nc4cc(F)ccc4[nH]3)c2)c1	285
CCOC(=O)Nc1cc(-c2csc(N=C(N)N)n2)cc([N+](=O)[O-])c1	816

Compound	XC50 [nM]
O=C(Nc1cccc(-c2cccc(-c3nc4ccccc4[nH]3)c2)c1)c1ccncc1	479
O=C(c1ccc(-c2cccc(-c3nc4cc(F)ccc4[nH]3)c2)cc1)N1CCCCC1CN1CCC(O)C1 (stereo not drawn)	1400
O=C(/C=C/c1ccc(F)cc1)NC1CCC(CCN2CCc3ccc(-n4cccn4)cc3CC2)CC1 (stereo not drawn)	1440
N#Cc1ccc(-c2ccc(C(=O)NCCCCN3CCC(c4cn(CCCO)c5ccccc45)CC3)cc2)cc1	750
Cc1cccc(C)c1N1CCN(C2CCC(NC(=O)/C=C/c3ccccc3)CC2)CC1 (stereo not drawn)	1180
CN1CCN(C(=O)CN2CCC3(CCC2=O)NC(=O)c2ccccc2O3)CC1 (stereo not drawn)	213
O=C(Nc1ccc(Cl)cc1)Nc1cccc(-c2cccc(-c3nc4cc(F)ccc4[nH]3)c2)c1	220
COc1ccc(-c2nc3cccnc3n2CC(=O)Nc2cc(Cl)c(Cl)cc2Cl)c(OC)c1	722
O=C(NC1CCC(CN2CCC(c3c[nH]c4ccccc34)CC2)CC1)c1cc2ccccc2s1 (stereo not drawn)	729
NC(=S)Cc1ccc2c(c1)OCO2	284
CCCCCCOc1ccc(C(=O)N[C@H]2CCN(CCCCCNC(=O)/C=C/c3ccc(Cl)c(Cl)c3)C2)cc1	695
CCC1CN2CCc3c([nH]c4ccccc34)C2CC1CC1=NCCc2c1[nH]c1ccc(OC)cc21 (stereo not drawn)	641
CC(CN1CCN(C)CC1)C(=O)Nc1cccc(-c2ccc(-c3nc4ccccc4[nH]3)s2)c1 (stereo not drawn)	632
CN(C)CC(=O)Nc1ccc(Nc2nccc(NCC(O)c3ccccc3)n2)cc1 (stereo not drawn)	973
N=C(N)Nc1nc(-c2cccc(NC(=O)Cc3ccccc3)c2)cs1	1000
CCCCCNC(=N)N/N=C/c1c[nH]c2ccc(OC)cc12	955
CCCOc1ccccc1C(=O)Nc1nonc1-c1ccc(OCC)c(OCC)c1	711
O=C(NCCCCCCNCc1ccc(-c2ccccc2)cc1)Nc1ccc(Cl)c(Cl)c1	962
O=C(NC1CCC(CN2CCC(c3c[nH]c4ccccc34)CC2)CC1)C1(O)c2ccccc2-c2ccccc21 (stereo not drawn)	1190
CCOCc1cnc(C)nc1NCC(=O)c1c(C)[nH]c2cc(C)ccc12	1210
COc1cc(NC(=O)/C=C/c2ccccc2Cl)cc(OCCN2CCC(O)(c3ccccc3)CC2)c1	174
CCCOc1ccc(-c2nonc2NC(=O)c2cccc(OC)c2)cc1OCCC	1150
Cc1nc2nc(N)nc(N)c2c(C)c1Cc1ccc(O)cc1	236
CCCC1N=C(N)N=C(N)N1c1ccc(CC)cc1 (stereo not drawn)	66.9

Compound	XC50 [nM]
CCN(CC)CCCCCNc1c2ccc(Cl)cc2nc2ccc(OC)cc12	50.6
CC(C)C[C@@H](/C=N/N1CCOC1=O)NC(=O)[C@H](CC(C)C)NC(=O)c1ccc(F)cc1	1170
CN(C)CCNc1ncnc2c1[nH]c1ccc(Br)cc12	742
N[C@@H](COc1cccc2c(-c3ccncc3)c(-c3cccc(NC(=O)Nc4ccccc4)c3)nn12)c1ccccc1	408
CN/C(=N\O)NCCN(C)C	1180
N#Cc1cccc(C(=O)Nc2cccc(-c3ccc(CN4CCCC4)cc3)c2)c1	695
COc1cc(-c2ccc3c(-c4ccc(C(=O)N5CCN(C)CC5)cc4)n[nH]c3n2)cc(OC)c1OC	1330
O=C(Nc1ccc(-c2nc3ccccc3[nH]2)cc1)c1ccc(S(=O)(=O)N2CCCCC2)cc1	749
c1csc(-c2ccc3c(c2)CC(NCc2c[nH]c4cnccc24)C3)c1 (stereo not drawn)	738
OC(c1ccccc1)C1CN(Cc2ccccc2)CCC1(O)c1ccccc1 (stereo not drawn)	846
COc1ccc(C2CCN(CCCNC(=O)c3ccc(NC(=O)c4ccc(Cl)cc4)cc3)CC2)c(OC)c1	763
O=C(CSc1nc2ccccc2c(=O)n1CC1CCCO1)Nc1cc(C(F)(F)F)ccc1Cl (stereo not drawn)	229
CC(C)NCC(=O)Nc1cccc(C(=O)Nc2cccc(C(F)(F)F)c2)c1	273
O=C(Cn1c(CCc2cccc(F)c2F)cc(=O)c2cccnc21)N(CCN1CCCC1)Cc1ccc(-c2ccc(C(F)(F)F)cc2)cc1	890
CC(=O)c1c(Nc2c(C)cc(C)cc2C)oc(C)cc1=O	481
Cc1ccc(-c2nc(N3CCN(C(=O)c4ccco4)CC3)c3ccc(Cl)cc3n2)cc1	1210
CCN1CCN(c2cc(C)c3cc(NC(=O)c4cccc(C(F)(F)F)c4)ccc3n2)CC1	568
Cc1c(C(=O)NC2CCC(CN3CCC(c4c[nH]c5ccccc45)CC3)CC2)cnn1-c1c(Cl)cc(Cl)cc1Cl (stereo not drawn)	711
CC(C)N(C)C(=O)n1cnc(S(=O)(=O)C2CC3CCC2C3)n1 (stereo not drawn)	57
c1ccc(CNCc2cccc(-c3csc(-c4nc5ccccc5[nH]4)c3)c2)cc1	456
OC(CNCc1cccc(Oc2ccc(Cl)cc2)c1)c1cc(C(F)(F)F)cc(C(F)(F)F)c1 (stereo not drawn)	255
Cc1nc(-c2nc(NCCc3ccncc3)ncc2-c2ccsc2)sc1C	298
Oc1ccc(-c2nc3c4cc(I)ccc4c4ccc(I)cc4c3[nH]2)cc1	972
COc1cc2c(cc1C(F)(F)F)N(C(=O)Nc1cc(-c3ccncc3)cc(-c3cccnc3)c1)CC2	619
